{
  "source": "patent US20200038383A1",
  "about": "“IMMEDIATE-RELEASE ABUSE DETERRENT CO[…] MEDICAMENTS FOR TREATING PAIN, ADD, ADHD AND OTHER SYNDROMES OR DISORDERS” (KEMPHARM, INC., priority 2016, published 2020)",
  "key": {"[1]": {"experiment": "Hydrolysis in 5% NaHCO3", "assay_type": "physicochemical", "details": "one hour"}, "[2]": {"experiment": "Chemical stability (hydrolysis) of hydrocodone conjugates in water", "assay_type": "physicochemical", "details": "one hour", "method": "Exemplary conjugates of hydrocodone of the present technology and control test conjugates not of the present technology were tested for chemical stability under conditions similar to what a potential drug abuser may use to “extract” the active portion of the molecule, for example dissolved in water, hydrochloric acid or sodium bicarbonate either at ambient temperature or 100° C."}, "[3]": {"experiment": "Water solubility / feasibility of intravenous administration"}, "[4]": {"experiment": "Hydrolysis to hydrocodone in 1 N HCl", "details": "1 hour"}, "[5]": {"experiment": "Intranasal PK of hydrocodone conjugates in rats", "details": "equivalent to 2 mg/kg hydrocodone freebase"}, "[6]": {"experiment": "Tamper resistance study (extraction methods, HPLC)", "assay_type": "physicochemical", "text": "Certain prodrug conjugates of the present technology were exposed to various commonly applied “extraction methods” to test for hydrolysis and/or decomposition of the prodrug."}, "[7]": {"experiment": "Oral dose escalation study in rats", "details": "oral solutions, escalating dosages"}, "[8]": {"experiment": "Oral PK of hydrocodone conjugates in rats (plasma hydrocodone, hydromorphone, intact conjugate by LC-MS/MS)"}, "[9]": {"experiment": "Oral PK in dogs", "details": "equivalent to 2 mg/kg freebase hydrocodone"}, "[10]": {"details": "ambient temperature (about 20° C.)"}, "[11]": {"details": "equivalent to 2 mg/kg hydrocodone freebase"}, "[12]": {"details": "equivalent to 2 mg/kg freebase hydrocodone"}},
  "note": "Where no end group is shown, it is not given here.",
  "data": [
    {"compound": "Tyr-Tyr-Phe-Phe-Ile-Hydrocodone (YYFFI-hydrocodone) [YYFFI-HC]", "values": [
      {"measurement": "%-release in 5% NaHCO3", "setting": "[1]; 100° C. oil bath", "value": 70, "unit": "%"},
      {"measurement": "%-release in 5% NaHCO3", "setting": "[1]; ambient (~20° C.)", "value": 0, "unit": "%"}
    ]},
    {"compound": "COc1ccc(C(=O)OC2=CC[C@H]3[C@H]4Cc5ccc(OC)c6c5[C@@]3(CCN4C)C2O6)cc1", "note": "(stereo partly drawn) [Compound 4-MeO-Bz-HC]", "values": [
      {"measurement": "amount of conjugate hydrolyzed in water", "setting": "[2]; 100° C. oil bath", "value": 0, "unit": "%"},
      {"measurement": "amount of conjugate hydrolyzed in water", "setting": "[2]; [10]", "value": 0, "unit": "%"},
      {"measurement": "solubility in water (intravenous administration at oral equivalent doses)", "setting": "[3]", "value": "hydrophobic"}
    ]},
    {"compound": "COc1ccc2c3c1OC1C(OC(=O)CCCCC(=O)O)=CC[C@H]4[C@@H](C2)N(C)CC[C@]314", "note": "(stereo partly drawn) [Adipate-HC]", "values": [
      {"measurement": "%-release in 5% NaHCO3", "setting": "[1]; 100° C. oil bath", "value": 100, "unit": "%"},
      {"measurement": "%-release in 5% NaHCO3", "setting": "[1]; ambient (~20° C.)", "value": 3, "unit": "%"},
      {"measurement": "%-release in 1 N HCl", "setting": "[4]; 100° C. oil bath", "value": 100, "unit": "%"},
      {"measurement": "%-release in 1 N HCl", "setting": "[4]; ambient (~20° C.)", "value": 13, "unit": "%"},
      {"measurement": "AUC for hydromorphone released from Adipate-HC, higher than Bz-HC (sentence on hydrocodone plasma concentrations, FIG. 3)", "setting": "[5]", "value": "approximately 280%"},
      {"measurement": "Cmax for hydromorphone released from Adipate-HC, higher than Bz-HC (sentence on hydrocodone plasma concentrations, FIG. 3)", "setting": "[5]", "value": "~60", "unit": "%"},
      {"measurement": "hydromorphone AUC, higher than Bz-HC (FIG. 4)", "setting": "[5]", "value": "approximately 750%"},
      {"measurement": "hydromorphone Cmax, higher than Bz-HC (FIG. 4)", "setting": "[5]", "value": "~660", "unit": "%"},
      {"measurement": "solubility in water (intravenous administration at oral equivalent doses)", "setting": "[3]", "value": "water soluble"}
    ]},
    {"compound": "COc1ccc2c3c1OC1C(OC(=O)COCC(=O)O)=CC[C@H]4[C@@H](C2)N(C)CC[C@]314", "note": "(stereo partly drawn) [Diglycolate-HC, reference compound]", "values": [
      {"measurement": "solubility in water (intravenous administration at oral equivalent doses)", "setting": "[3]", "value": "water soluble"}
    ]},
    {"compound": "CC(=O)Oc1ccccc1C(=O)OC1=CCC2C3Cc4ccc(OC(=O)c5ccccc5OC(C)=O)c5c4C2(CCN3C)C1O5", "note": "(stereo not drawn) [3,6-di-aspirin-HM, 3,6,-di-aspirin-hydromorphone]", "values": [
      {"measurement": "stability under commonly applied extraction methods", "setting": "[6]", "value": "chemically stable"},
      {"measurement": "Release of hydromorphone (as %-AUC by HPLC)", "setting": "[6]; 1 N HCl, ambient temperature, 30 min.", "value": 0, "unit": "%"},
      {"measurement": "Release of hydromorphone (as %-AUC by HPLC)", "setting": "[6]; 1 N HCl, ambient temperature, 60 min.", "value": 0, "unit": "%"},
      {"measurement": "Release of hydromorphone (as %-AUC by HPLC)", "setting": "[6]; 1 N NaOH, ambient temperature, 30 min.", "value": 1, "unit": "%"},
      {"measurement": "Release of hydromorphone (as %-AUC by HPLC)", "setting": "[6]; 1 N NaOH, ambient temperature, 60 min.", "value": 1, "unit": "%"},
      {"measurement": "Release of hydromorphone (as %-AUC by HPLC)", "setting": "[6]; 4 N NaOH, ambient temperature, 30 min.", "value": 1, "unit": "%"},
      {"measurement": "Release of hydromorphone (as %-AUC by HPLC)", "setting": "[6]; 4 N NaOH, ambient temperature, 60 min.", "value": 6, "unit": "%"},
      {"measurement": "Release of hydromorphone (as %-AUC by HPLC)", "setting": "[6]; 5% Acetic acid, ambient temperature, 30 min.", "value": 0, "unit": "%"},
      {"measurement": "Release of hydromorphone (as %-AUC by HPLC)", "setting": "[6]; 5% Acetic acid, ambient temperature, 60 min.", "value": 0, "unit": "%"},
      {"measurement": "Release of hydromorphone (as %-AUC by HPLC)", "setting": "[6]; Glacial acetic acid, ambient temperature, 30 min.", "value": 0, "unit": "%"},
      {"measurement": "Release of hydromorphone (as %-AUC by HPLC)", "setting": "[6]; Glacial acetic acid, ambient temperature, 60 min.", "value": 0, "unit": "%"},
      {"measurement": "Release of hydromorphone (as %-AUC by HPLC)", "setting": "[6]; Sat. NaHCO3, ambient temperature, 30 min.", "value": 0, "unit": "%"},
      {"measurement": "Release of hydromorphone (as %-AUC by HPLC)", "setting": "[6]; Sat. NaHCO3, ambient temperature, 60 min.", "value": 0, "unit": "%"},
      {"measurement": "Release of hydromorphone (as %-AUC by HPLC)", "setting": "[6]; Water, ambient temperature, 30 min.", "value": 0, "unit": "%"},
      {"measurement": "Release of hydromorphone (as %-AUC by HPLC)", "setting": "[6]; Water, ambient temperature, 60 min.", "value": 0, "unit": "%"},
      {"measurement": "exposure (AUC) to hydromorphone at doses above the therapeutic level", "setting": "[7]", "value": "reached a plateau"}
    ]},
    {"compound": "COc1ccc(C(=O)OC2=CC[C@H]3[C@H]4Cc5ccc(OC)c6c5[C@@]3(CCN4C)C2O6)cc1O", "note": "(stereo partly drawn) [3-OH-4-MeO-Bz-HC]", "values": [
      {"measurement": "%-release in 5% NaHCO3", "setting": "[1]; 100° C. oil bath", "value": 36, "unit": "%"},
      {"measurement": "%-release in 5% NaHCO3", "setting": "[1]; ambient (~20° C.)", "value": 0, "unit": "%"},
      {"measurement": "%-release in 1 N HCl", "setting": "[4]; 100° C. oil bath", "value": 35, "unit": "%"},
      {"measurement": "%-release in 1 N HCl", "setting": "[4]; ambient (~20° C.)", "value": 0, "unit": "%"},
      {"measurement": "solubility in water (intravenous administration at oral equivalent doses)", "setting": "[3]", "value": "hydrophobic"}
    ]},
    {"compound": "2-aminobenzoate-hydrocodone [Compound 2-Abz-HC]", "values": [
      {"measurement": "amount of conjugate hydrolyzed in water", "setting": "[2]; 100° C. oil bath", "value": 0, "unit": "%"},
      {"measurement": "amount of conjugate hydrolyzed in water", "setting": "[2]; [10]", "value": 0, "unit": "%"},
      {"measurement": "%-release in 1 N HCl", "setting": "[4]; 100° C. oil bath", "value": 16, "unit": "%"},
      {"measurement": "%-release in 1 N HCl", "setting": "[4]; ambient (~20° C.)", "value": 0, "unit": "%"},
      {"measurement": "hydrocodone AUC, lower than Hydrocodone.BT", "setting": "[8]; [11]", "value": "approximately 35%"},
      {"measurement": "hydrocodone Cmax, lower than Hydrocodone.BT", "setting": "[8]; [11]", "value": "~60", "unit": "%"},
      {"measurement": "hydrocodone Tmax compared with Hydrocodone.BT", "setting": "[8]; [11]", "value": "approximately four times longer"},
      {"measurement": "hydromorphone AUC, lower than Hydrocodone.BT", "setting": "[8]; [11]", "value": "approximately 25%"},
      {"measurement": "hydromorphone Cmax, lower than Hydrocodone.BT", "setting": "[8]; [11]", "value": "~50", "unit": "%"}
    ]},
    {"compound": "COc1ccc2c3c1OC1C(OC(=O)c4ccc5c(c4)OCO5)=CC[C@H]4[C@@H](C2)N(C)CC[C@]314", "note": "(stereo partly drawn) [Piperonylate-HC]", "values": [
      {"measurement": "solubility in water (intravenous administration at oral equivalent doses)", "setting": "[3]", "value": "hydrophobic"}
    ]},
    {"compound": "COc1ccc2c3c1OC1C(OC(=O)c4ccccc4)=CCC4C(C2)N(C)CCC314", "note": "(stereo not drawn) [Bz-HC, benzhydrocodone]", "values": [
      {"measurement": "AUC for intact Bz-HC as % of the AUC for hydrocodone", "setting": "[9]", "value": "approximately 10%"},
      {"measurement": "solubility in water (intravenous administration at oral equivalent doses)", "setting": "[3]", "value": "hydrophobic"},
      {"measurement": "water solubility (or solubility in PBS)", "setting": "[3]; 0.30 mg/kg close to the maximum intravenous dose in rats", "value": "poor"},
      {"measurement": "maximum plasma concentrations of hydromorphone versus dose", "setting": "[8]; doses above 2.00 mg/kg", "value": "did not significantly change"},
      {"measurement": "exposures (AUC) to hydrocodone and hydromorphone versus dose", "setting": "[8]; doses between 0.25 and 4.00 mg/kg", "value": "fairly linear"},
      {"measurement": "AUC for intact Bz-HC as % of the AUC for hydrocodone", "setting": "[8]; [12]", "value": "approximately 10%"},
      {"measurement": "AUC for intact Bz-HC as % of the AUC for hydromorphone", "setting": "[8]; [12]", "value": "~3", "unit": "%"},
      {"measurement": "hydrocodone Cmax compared with Hydrocodone.BT", "setting": "[8]; [11]", "value": "approximately equal"}
    ]}
  ]
}
